Like-named read-outs stand apart in the source and are kept apart here.
How the values were obtained:
Format in all cases: cell-based
[1] = test system: human melanoma cells Mewo (with wild-type B-Raf); test: In vitro cell proliferation assay, Mewo; settings: 72 hours, cellular ATP monitoring
Description: (§1) Exponentially growing human melanoma cells A375 (with a mutated B-RAF) and human melanoma cells Mewo (with wild-type B-Raf) were seeded and incubated at 37° C. in a humidified 5% CO2 atmosphere. After 24 hours, scalar doses of the compound were added to the medium and cells oncubated for 72 hours. At the end of treatment, cells were washed and counted. Cell number was determined by a cellular adenosine triphosphate monitoring system. Cell proliferation was compared to control cells and the concentration inhibiting cell growth by 50% was calculated.

[2] = test system: human melanoma cells A375 (with a mutated B-RAF); test: In vitro cell proliferation assay, A375; settings: A-375, 72 hours, cellular ATP monitoring
Description: as §1

[3] = test system: p-MAPK (T202/Y204) in A375 human melanoma cells, having a mutated B-RAF; test: p-MAPK (T202/Y204) ArrayScan assay
Description: A375 human melanoma cells, having a mutated B-RAF, are seeded in 384-well poly-lysine coated plates (Matrix) at a density of 1000 cells/well with appropriate medium supplemented with 10% FCS and incubated for 16-24 hours. Cells are treated for 1.5 or 2 hours with increasing doses of compounds (starting dose 10 μM, dilution factor 2.5). At the end of the treatment cells are fixed with p-formaldehyde 3.7% for 15-30 min, then washed twice with D-PBS ([…]) and permeabilized with D-PBS containing 0.1% Triton X-100 and 1% BSA (Sigma-Aldrich) for 15 minutes at room temperature (staining solution). […] After removal of antibody solution, the anti-mouse Cy™2-conjugated (Green) secondary antibody (Amersham) diluted 1:500 in staining solution containing […] DAPI is added. The plate is incubated for 1 hour at 37° C., washed twice and red with Cellomics' ArrayScan VTI (4 fields/well, CytoNucTrans algorithm).
The parameter “MEAN_RingAvgIntenCh2”, which measures the mean cytoplasmatic fluorescence intensity associated to p-MAPK staining, is reported as the final result.

[4] = A-375, A375 cells treated 1.5 or 2 hours, p-MAPK staining, MEAN_RingAvgIntenCh2, read-out: Array Scan A375 IC50
[5] = A-375, read-out: Array Scan A375 IC50

SMILES	IC50 [1] [nM]	IC50 [2] [nM]	IC50 [3, 4] [nM]	IC50 [3, 5] [nM]
O=C(Nc1ccc(Cl)cc1)Nc1cccc(-c2nn3c(c2-c2ccncc2)SCCC3)c1 [compound 1, 1-(4-chloro-phenyl)-3-[3-(3-pyridin-4-yl-6,7-dihydro-5H-pyrazolo[5,1-b][1,3]thiazin-2-yl)-phenyl]-urea]	3590	2480	7370	–
Cc1ccc(NC(=O)Nc2cccc(-c3nn4c(c3-c3ccncc3)SCCC4)c2)cc1 [compound 2, 1-[3-(3-pyridin-4-yl-6,7-dihydro-5H-pyrazolo[5,1-b][1,3]thiazin-2-yl)-phenyl]-3-p-tolyl-urea]	7250	3690	5570	–
O=C(Nc1ccc(C(F)(F)F)cc1)Nc1cccc(-c2nn3c(c2-c2ccncc2)SCCC3)c1 [compound 3, 1-[3-(3-pyridin-4-yl-6,7-dihydro-5H-pyrazolo[5,1-b][1,3]thiazin-2-yl)-phenyl]-3-(4-trifluoromethyl-phenyl)-urea]	2540	910	770	–
O=S(=O)(Nc1cccc(-c2nn3c(c2-c2ccncc2)SCCC3)c1)c1cccc(F)c1 [compound 4, 3-fluoro-N-[3-(3-pyridin-4-yl-6,7-dihydro-5H-pyrazolo[5,1-b][1,3]thiazin-2-yl)-phenyl]-benzenesulfonamide]	> 10000	7510	1620	–
O=C(Nc1ccc(C(F)(F)F)cc1)Nc1cccc(-c2nn3c(c2-c2ccncc2)SCC3)c1 [compound 5, 1-[3-(7-pyridin-4-yl-2,3-dihydro-pyrazolo[5,1-b]thiazol-6-yl)-phenyl]-3-(4-trifluoromethyl-phenyl)urea]	2630	430	–	600
O=C(Nc1ccc(Cl)cc1)Nc1cccc(-c2nn3c(c2-c2ccncc2)SCC3)c1 [compound 6, 1-(4-chloro-phenyl)-3-[3-(7-pyridin-4-yl-2,3-dihydro-pyrazolo[5,1-b]thiazol-6-yl)-phenyl]-urea]	5950	2330	1380	–
Oc1cccc(-c2nn3c(c2-c2ccncc2)SCC3)c1 [compound 7, 3-(7-pyridin-4-yl-2,3-dihydro-pyrazolo[5,1-b]thiazol-6-yl)-phenol]	> 10000	950	750	–
Oc1cccc(-c2nn3c(c2-c2ccncc2)SCCC3)c1 [compound 8, 3-(3-pyridin-4-yl-6,7-dihydro-5H-pyrazolo[5,1-b][1,3]thiazin-2-yl)-phenol]	> 10000	1510	–	2040
O=S(=O)(Nc1cccc(-c2nn3c(c2-c2ccncc2)SCCC3)c1)c1cc(F)ccc1F [compound 9, 2,5-difluoro-N-[3-(3-pyridin-4-yl-6,7-dihydro-5H-pyrazolo[5,1-b][1,3]thiazin-2-yl)-phenyl]-benzenesulfonamide]	4290	1280	460	–
O=S1(=O)CCn2nc(-c3cccc(O)c3)c(-c3ccncc3)c21 [compound 10, 3-(1,1-dioxo-7-pyridin-4-yl-2,3-dihydro-pyrazolo[5,1-b]thiazol-6-yl)-phenol]	> 10000	1980	620	–

The next lines start with results.

IC50 [1] [nM]	IC50 [2] [nM]	IC50 [3, 4] [nM]	SMILES	IC50 [3, 5] [nM]
> 10000	660	260	O=S(=O)(Nc1cccc(-c2nn3c(c2-c2ccncc2)SCC3)c1)c1cc(F)ccc1F [compound 11, 2,5-difluoro-N-[3-(7-pyridin-4-yl-2,3-dihydro-pyrazolo[5,1-b]thiazol-6-yl)-phenyl]-benzenesulfonamide]	–
> 10000	3880	6390	O=C(Cc1ccc(C(F)(F)F)cc1)Nc1cccc(-c2nn3c(c2-c2ccncc2)SCCC3)c1 [compound 12, N-[3-(3-pyridin-4-yl-6,7-dihydro-5H-pyrazolo[5,1-b][1,3]thiazin-2-yl)-phenyl]-2-(4-trifluoromethyl-phenyl)-acetamide]	–
> 10000	9280	3030	O=S(=O)(Nc1cccc(-c2nn3c(c2-c2ccncc2)SCCC3)c1)c1ccco1 [compound 13, furan-2-sulfonic acid [3-(3-pyridin-4-yl-6,7-dihydro-5H-pyrazolo[5,1-b][1,3]thiazin-2-yl)-phenyl]-amide]	–
> 10000	7070	4690	O=S(=O)(Nc1cccc(-c2nn3c(c2-c2ccncc2)SCCC3)c1)c1ccsc1 [compound 14, thiophene-3-sulfonic acid [3-(3-pyridin-4-yl-6,7-dihydro-5H-pyrazolo[5,1-b][1,3]-thiazin-2-yl)-phenyl]-amide]	–
3090	680	480	CC(C)(C)c1ccc(NC(=O)c2cccc(-c3nn4c(c3-c3ccncc3)SCC4)c2)cc1 [compound 15, N-(4-tert-butyl-phenyl)-3-(7-pyridin-4-yl-2,3-dihydro-pyrazolo[5,1-b]thiazol-6-yl)-benzamide]	–
> 10000	1340	1170	NC(=O)c1csc2c(-c3ccncc3)c(-c3cccc(NS(=O)(=O)c4cc(F)ccc4F)c3)nn12 [compound 17, 6-[3-(2,5-difluoro-benzenesulfonylamino)-phenyl]-7-pyridin-4-yl-pyrazolo[5,1-b]thiazole-3-carboxylic acid amide]	–
> 10000	2160	2290	CC(C)(C)c1ccc(NC(=O)Nc2cccc(-c3nn4c(c3-c3ccncc3)SCC4)c2)cc1 [compound 18, 1-(4-tert-butyl-phenyl)-3-[3-(7-pyridin-4-yl-2,3-dihydro-pyrazolo[5,1-b]thiazol-6-yl)-phenyl]-urea]	–
> 10000	7680	4690	O=C(Nc1ccc(C(F)(F)F)cc1)Nc1cccc(-c2nn3c(c2-c2ccncc2)[S+]([O-])CC3)c1 (stereo not drawn) [compound 19, 1-[3-(1-oxo-7-pyridin-4-yl-2,3-dihydro-pyrazolo[5,1-b]thiazol-6-yl)-phenyl]-3-(4-trifluoromethyl-phenyl)-urea]	–
> 10000	1170	360	Oc1cccc(-c2nn3ccsc3c2-c2ccncc2)c1 [compound 20, 3-(7-pyridin-4-yl-pyrazolo[5,1-b]thiazol-6-yl)-phenol]	–
> 10000	3130	210	O=S(=O)(Nc1cccc(-c2nn3ccsc3c2-c2ccncc2)c1)c1cc(F)ccc1F [compound 21, 2,5-difluoro-N-[3-(7-pyridin-4-yl-pyrazolo[5,1-b]thiazol-6-yl)-phenyl]-benzenesulfonamide]	–
5410	1030	440	O=C(Nc1ccc(C(F)(F)F)cc1)Nc1cccc(-c2nn3ccsc3c2-c2ccncc2)c1 [compound 22, 1-[3-(7-pyridin-4-yl-pyrazolo[5,1-b]thiazol-6-yl)-phenyl]-3-(4-trifluoromethyl-phenyl)-urea]	–
> 10000	290	20	O=S(=O)(Nc1ccc(F)c(-c2nn3c(c2-c2ccncc2)SCC3)c1F)c1cc(F)ccc1F [compound 23, N-[2,4-difluoro-3-(7-pyridin-4-yl-2,3-dihydro-pyrazolo[5,1-b]thiazol-6-yl)-phenyl]-2,5-difluoro-benzenesulfonamide]	–
5090	1230	1460	O=C(Nc1ccc(C(F)(F)F)cc1)c1cccc(-c2nn3c(c2-c2ccncc2)SCC3)c1 [compound 24, 3-(7-pyridin-4-yl-2,3-dihydro-pyrazolo[5,1-b]thiazol-6-yl)-N-(4-trifluoromethyl-phenyl)-benzamide]	–

Reference: US8524707B2, “Bicyclic pyrazoles as protein kinase inhibitors” (Nerviano Medical Sciences S.r.l., priority 2008, dated 2013)
